In patent publication US20260193238A1, “PHARMACEUTICAL COMPOUNDS AS PARP7 AND/OR PARP1 INHIBITORS” (Duke Street Bio Limited, priority 2022, published 2026):

target: PARP1 (Homo sapiens, UniProt P09874); assay: PARP1 biochemical DELFIA assay (auto-PARylation); conditions: Table 1
Sequence (P09874 whole entry): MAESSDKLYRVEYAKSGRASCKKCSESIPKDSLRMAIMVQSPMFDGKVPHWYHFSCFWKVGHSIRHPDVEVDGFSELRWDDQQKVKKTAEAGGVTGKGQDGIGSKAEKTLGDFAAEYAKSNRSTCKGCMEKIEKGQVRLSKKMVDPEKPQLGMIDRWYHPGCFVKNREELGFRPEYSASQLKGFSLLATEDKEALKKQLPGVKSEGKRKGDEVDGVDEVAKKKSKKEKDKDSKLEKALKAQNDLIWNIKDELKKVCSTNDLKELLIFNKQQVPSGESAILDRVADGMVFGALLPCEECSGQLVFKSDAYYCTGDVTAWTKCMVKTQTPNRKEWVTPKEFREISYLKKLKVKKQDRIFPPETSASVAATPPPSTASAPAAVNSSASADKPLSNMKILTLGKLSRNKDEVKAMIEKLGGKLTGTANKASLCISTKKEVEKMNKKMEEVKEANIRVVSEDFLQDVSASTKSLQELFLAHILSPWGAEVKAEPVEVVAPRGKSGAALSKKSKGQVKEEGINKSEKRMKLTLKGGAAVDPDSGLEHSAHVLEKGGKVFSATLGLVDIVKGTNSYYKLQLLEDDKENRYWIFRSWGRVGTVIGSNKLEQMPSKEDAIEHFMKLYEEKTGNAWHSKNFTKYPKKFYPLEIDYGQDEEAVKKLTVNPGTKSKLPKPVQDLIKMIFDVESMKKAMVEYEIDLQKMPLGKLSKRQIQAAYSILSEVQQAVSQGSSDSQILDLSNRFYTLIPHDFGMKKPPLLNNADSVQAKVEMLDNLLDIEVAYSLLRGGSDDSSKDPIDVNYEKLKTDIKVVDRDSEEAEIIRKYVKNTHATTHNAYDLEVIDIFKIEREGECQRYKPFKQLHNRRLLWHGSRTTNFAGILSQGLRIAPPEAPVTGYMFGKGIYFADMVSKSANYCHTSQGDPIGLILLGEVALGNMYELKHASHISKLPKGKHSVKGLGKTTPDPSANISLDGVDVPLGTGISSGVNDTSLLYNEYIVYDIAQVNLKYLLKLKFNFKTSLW

IC50 [µM]	Structure (SMILES)
0.1 to 1	CNC(=O)c1ccc(N2CCN(C(=O)CCN3CCCC(c4cc(C(F)(F)F)c(=O)[nH]n4)C3)CC2)nc1 (single isomer, unassigned) [Compound 28a]
0.1 to 1	O=C(CCN1CCCC(c2cc(C(F)(F)F)c(=O)[nH]n2)C1)N1CCN(c2ccc(F)cn2)CC1 (single isomer, unassigned) [Compound 8a]
0.01 to 0.1	O=C(CCN1CCCC(c2cc(C(F)(F)F)c(=O)[nH]n2)C1)N1CCN(c2ncc(C(F)(F)F)cn2)CC1 (single isomer, unassigned) [Compound 1b, 6-(1-(3-oxo-3-(4-(5-(trifluoromethyl)pyrimidin-2-yl)piperazin-1-yl)propyl)piperidin-3-yl)-4-(trifluoromethyl)pyridazin-3(2H)-one]
0.1 to 1	O=C(CCN1CCCC(c2cc(C(F)(F)F)c(=O)[nH]n2)C1)N1CCN(c2ccc(Cl)cn2)CC1 (single isomer, unassigned) [Compound 15a]
0.1 to 1	O=C(CCN1CCCC(c2cc(C(F)(F)F)c(=O)[nH]n2)C1)N1CCN(c2ncc(C(F)(F)F)cn2)CC1 (single isomer, unassigned) [Compound 1a, 6-(1-(3-oxo-3-(4-(5-(trifluoromethyl)pyrimidin-2-yl)piperazin-1-yl)propyl)piperidin-3-yl)-4-(trifluoromethyl)pyridazin-3(2H)-one]
0.1 to 1	O=C(CCC1CCN(c2ncc(C(F)(F)F)cn2)CC1)N1CCCC(c2cc(C(F)(F)F)c(=O)[nH]n2)C1 (single isomer, unassigned) [Compound 4b]
0.1 to 1	O=C(CCN1CCCCC(c2cc(C(F)(F)F)c(=O)[nH]n2)C1)N1CCN(c2ncc(C(F)(F)F)cn2)CC1 (racemic) [Compound 12rac]
1 to 10	O=C(CN1CCCC1c1cc(C(F)(F)F)c(=O)[nH]n1)N1CCN(c2ncc(C(F)(F)F)cn2)CC1 (single isomer, unassigned) [Compound 24a, 6-(1-(2-oxo-2-(4-(5-(trifluoromethyl)pyrimidin-2-yl)piperazin-1-yl)ethyl)pyrrolidin-2-yl)-4-(trifluoromethyl)pyridazin-3(2H)-one]
0.1 to 1	CCc1cc(C2CCCN(CCC(=O)N3CCN(c4ncc(C(F)(F)F)cn4)CC3)C2)c[nH]c1=O (racemic) [Compound 22rac, 3-ethyl-5-(1-(3-oxo-3-(4-(5-(trifluoromethyl)pyrimidin-2-yl)piperazin-1-yl)propyl)piperidin-3-yl)pyridin-2(1H)-one]
0.01 to 0.1	O=C(CCN1CCCC(c2c[nH]c(=O)c(C(F)(F)F)c2)C1)N1CCN(c2ncc(C(F)(F)F)cn2)CC1 (single isomer, unassigned) [Compound 25b]
0.01 to 0.1	O=C(CCN1CCCCC1c1cc(C(F)(F)F)c(=O)[nH]n1)N1CCN(c2ncc(C(F)(F)F)cn2)CC1 (racemic) [Compound 21rac]
0.1 to 1	O=C(CCN1CCCC(c2cc(C(F)(F)F)c(=O)[nH]n2)C1)N1CCN(c2ncc(F)cn2)CC1 (racemic) [Compound 17rac]

same assay, conditions: Table 1A

IC50 [µM]	Structure (SMILES)
1 to 10	CC1(C)CC(c2cc(C(F)(F)F)c(=O)[nH]n2)N(CC(=O)N2CCN(c3ncc(C(F)(F)F)cn3)CC2)C1 (single isomer, unassigned) [Compound 94b]
≤ 0.01	O=C(CN1CCCC1c1cc(C(F)(F)F)c(=O)[nH]n1)N1CCN(c2ncc(OC(F)(F)F)cn2)CC1 (single isomer, unassigned) [Compound 72b]
0.01 to 0.1	CNC(=O)c1ccc(N2CCN(C(=O)CCN3CCC(c4cc(C(F)(F)F)c(=O)[nH]n4)CC3)CC2)cn1 [Compound 59]
0.01 to 0.1	CC1(C)CC(c2cc(C(F)(F)F)c(=O)[nH]n2)CN(CCC(=O)N2CCN(c3ncc(C(F)(F)F)cn3)CC2)C1 (single isomer, unassigned) [Compound 87b]
0.1 to 1	N#Cc1cc(F)cnc1N1CCN(C(=O)CN2CCCC2c2cc(C(F)(F)F)c(=O)[nH]n2)CC1 (single isomer, unassigned) [Compound 146a]
1 to 10	O=C(CN1CCCC1c1cc(C(F)(F)F)c(=O)[nH]n1)N1CCN(c2nc3ccc(F)cc3o2)CC1 (single isomer, unassigned) [Compound 95b]
≤ 0.01	O=C(CN1CCCC1c1cc(C(F)(F)F)c(=O)[nH]n1)N1CCN(c2nc3cc(Cl)ccc3o2)CC1 (single isomer, unassigned) [Compound 99a]
1 to 10	O=C(CN1CCCC1c1cc(C(F)(F)F)c(=O)[nH]n1)N1CCN(c2ncc(F)cc2Cl)CC1 (single isomer, unassigned) [Compound 116b]
0.01 to 0.1	CNC(=O)c1ccc(N2CCN(C(=O)CN3CCC(c4n[nH]c(=O)c5ccccc45)CC3)CC2)cn1 [Compound 50]
1 to 10	O=C(CN1CCCC1c1cc(C(F)(F)F)c(=O)[nH]n1)N1CCN(c2nc3cc(F)ccc3o2)CC1 (single isomer, unassigned) [Compound 150b]
1 to 10	CCc1[nH]c(=O)c(C(F)(F)F)cc1C1CCCN1CC(=O)N1CCN(c2ncc(C(F)(F)F)cn2)CC1 (single isomer, unassigned) [Compound 105a]
1 to 10	N#Cc1cc(C2CCCN2CC(=O)N2CCN(c3ncc(C(F)(F)F)cn3)CC2)n[nH]c1=O (single isomer, unassigned) [Compound 98b, 3-oxo-6-(1-(2-oxo-2-(4-(5-(trifluoromethyl)pyrimidin-2-yl)piperazin-1-yl)ethyl)pyrrolidin-2-yl)-2,3-dihydropyridazine-4-carbonitrile]
0.01 to 0.1	O=C(CN1CCCC1c1cc(C(F)(F)F)c(=O)[nH]n1)C1CCN(c2ncc(C(F)(F)F)cn2)CC1 (single isomer, unassigned) [Compound 75a]
0.1 to 1	CNC(=O)c1ccc(N2CCN(C(=O)CN3CCC(c4cc(C(F)(F)F)c(=O)[nH]n4)CC3)CC2)cn1 [Compound 64]
≤ 0.01	O=C(CN1CCCC1c1cc(C(F)(F)F)c(=O)[nH]n1)N1CCN(c2nc3ccc(Cl)cc3o2)CC1 (single isomer, unassigned) [Compound 85a]
0.01 to 0.1	O=C(CN1CCCC1c1cc(C(F)(F)F)c(=O)[nH]n1)N1CCN(c2ccc(F)cn2)CC1 (single isomer, unassigned) [Compound 46a]
0.1 to 1	O=C(CN1CCCC1c1cc(C(F)(F)F)c(=O)[nH]n1)N1CCN(c2ncc(Cl)cc2Cl)CC1 (single isomer, unassigned) [Compound 125a]

IC50 [µM]	Structure (SMILES)
≤ 0.01	O=C(CN1CCCC1c1cc(C(F)(F)F)c(=O)[nH]n1)N1CCN(c2nc3ccccn3n2)CC1 (single isomer, unassigned) [Compound 117a]
1 to 10	O=C(CN1CCCC1c1c[nH]c(=O)c(C(F)(F)F)n1)N1CCN(c2ncc(C(F)(F)F)cn2)CC1 (single isomer, unassigned) [Compound 84b, 5-(1-(2-oxo-2-(4-(5-(trifluoromethyl)pyrimidin-2-yl)piperazin-1-yl)ethyl)pyrrolidin-2-yl)-3-(trifluoromethyl)pyrazin-2(1H)-one]
1 to 10	CC(C)(C)c1cnc(N2CCN(C(=O)CN3CCCC3c3cc(C(F)(F)F)c(=O)[nH]n3)CC2)nc1 (single isomer, unassigned) [Compound 82b]
1 to 10	O=C(CN1CCCC1c1cc(C(F)(F)F)c(=O)[nH]n1)N1CCN(c2ccc(C(F)F)cn2)CC1 (single isomer, unassigned) [Compound 126b]
0.01 to 0.1	N#Cc1cnc(N2CCN(C(=O)CN3CCCC3c3cc(C(F)(F)F)c(=O)[nH]n3)CC2)nc1 (single isomer, unassigned) [Compound 36a]
0.1 to 1	O=C(CN1CCCC1c1n[nH]c(=O)c2ccccc12)N1CCN(c2ncc(C(F)(F)F)cn2)CC1 (single isomer, unassigned) [Compound 38a, 4-(1-(2-oxo-2-(4-(5-(trifluoromethyl)pyrimidin-2-yl)piperazin-1-yl)ethyl)pyrrolidin-2-yl)phthalazin-1(2H)-one]
1 to 10	O=C(CN1CCCC1c1cc(C(F)(F)F)c(=O)[nH]n1)N1CC2(C1)CN(c1ncc(C(F)(F)F)cn1)C2 (single isomer, unassigned) [Compound 106b]
1 to 10	O=C(CN1CCCC1c1cc(C(F)(F)F)c(=O)[nH]n1)N1CCN(c2ncc(C3CC3)cn2)CC1 (single isomer, unassigned) [Compound 69b]
≤ 0.01	CNC(=O)c1ccc(N2CCN(C(=O)CCN3CCC(c4n[nH]c(=O)c5ccccc45)CC3)CC2)cn1 [Compound 48, N-methyl-5-(4-(3-(4-(4-oxo-3,4-dihydrophthalazin-1-yl)piperidin-1-yl)propanoyl)piperazin-1-yl)picolinamide]
0.1 to 1	O=C(CN1CCCC1c1cc(C(F)(F)F)c(=O)[nH]n1)N1CCN(c2ccc(F)cn2)CC1 (single isomer, unassigned) [Compound 46b]
0.1 to 1	O=C(CN1CCCC1c1c[nH]c(=O)c(Cl)c1)N1CCN(c2ncc(C(F)(F)F)cn2)CC1 (single isomer, unassigned) [Compound 78a, 3-chloro-5-(1-(2-oxo-2-(4-(5-(trifluoromethyl)pyrimidin-2-yl)piperazin-1-yl)ethyl)pyrrolidin-2-yl)pyridin-2(1H)-one]
1 to 10	CN(C(=O)CN1CCCC1c1cc(C(F)(F)F)c(=O)[nH]n1)C1CCN(c2ncc(C(F)(F)F)cn2)CC1 (single isomer, unassigned) [Compound 34b]
0.01 to 0.1	N#Cc1ccc2oc(N3CCN(C(=O)CN4CCCC4c4cc(C(F)(F)F)c(=O)[nH]n4)CC3)nc2c1 (single isomer, unassigned) [Compound 100a]
0.01 to 0.1	COC1CC(c2cc(C(F)(F)F)c(=O)[nH]n2)N(CC(=O)N2CCN(c3ncc(C(F)(F)F)cn3)CC2)C1 (single isomer, unassigned) [Compound 138cis1, 6-(4-methoxy-1-(2-oxo-2-(4-(5-(trifluoromethyl)pyrimidin-2-yl)piperazin-1-yl)ethyl)pyrrolidin-2-yl)-4-(trifluoromethyl)pyridazin-3(2H)-one]
0.1 to 1	O=C(CCN1CCC(c2cc(C(F)(F)F)c(=O)[nH]n2)CC1)N1CCN(c2ncc(C(F)(F)F)cn2)CC1 [Compound 61]
1 to 10	O=C(CN1CCCC1c1c[nH]c(=O)c(C(F)(F)F)n1)N1CCN(c2ncc(C(F)(F)F)cn2)CC1 (single isomer, unassigned) [Compound 84a, 5-(1-(2-oxo-2-(4-(5-(trifluoromethyl)pyrimidin-2-yl)piperazin-1-yl)ethyl)pyrrolidin-2-yl)-3-(trifluoromethyl)pyrazin-2(1H)-one]
